Measurements reported in US8580122B2, “Hybrid chemical/mechanical method and apparatus for inactivating and removing pharmaceuticals and other contaminants from water” (priority 2004, dated 2013).
Counter-ions that a name gives are not always drawn. Like-named read-outs stand apart in the source and are kept apart here.

Experiments:
[1] = cited from earlier work; for biodegradation in the CBT, test prolonged: prolonged to 40 days; for biodegradability in the CBT: result in words
[2] = result in words; cited from earlier work
[3] = eight German STPs; cited from earlier work
[4] = computer model, binding to sludge solids; cited from earlier work
[5] = result in words; cited from earlier work; remark: listed apart in the source
[6] = cited from earlier work
[7] = wastewater treatment plant; cited from earlier work
[8] = epilimnion of Lake Greifensee; cited from earlier work
[9] = cited from earlier work; for biodegradability in the ZWT: result in words
[10] = laboratory-scale activated sludge plants; cited from earlier work
[11] = result in words; cited from earlier work; remark: listed apart in the source
[12] = system: fecal coliforms; assay: sulfur dioxide treatment of effluent, Saticoy-Jose Florez Wastewater Treatment Plant; details: effluent undergoing sulfur dioxide treatment
Description: The destruction of odor causing microbes feeding on the water stops further CO2 production, and may be employed where the wastewater treatment plant is mandated to reduce these carbon dioxide emissions. Also, if there is significant carbon in the suspended solids, most perchlorates and chlorates will have been reduced on contact with the solids. The separation and disposal of the solids also removes most of the adsorbed microbes. Under this wastewater treatment scenario, the sulfur dioxide reduction treatment is more for acidification, inactivating of certain chemicals such as Chromium VI susceptible to acid reduction, adding sulfurous and sulfate ions, and chemical dewatering of the solids. […] This disinfection level is suitable in California for gray water land application. Consequently, the sulfur dioxide was used primarily to acid reduce pharmaceuticals, and condition the solids and separated wastewater for land application.

[13] = result in words; cited from earlier work; remark: listed apart in the source
[14] = cited from earlier work; remark: listed apart in the source
[15] = result in words; cited from earlier work; remark: listed apart in the source
[16] = pilot sewage plant and anoxic biofilm reactor

## CC1(C)S[C@@H]2[C@H](NC(=O)Cc3ccccc3)C(=O)N2[C@H]1C(=O)O [penicillin G]
[1]
  biodegradation in the CBT, test prolonged: 35%
  biodegradability in the CBT: None of the test compounds met the criteria for ready biodegradability
[1]; regular test period, 28 days printed for penicillin G
  biodegradation in the CBT (removed / biodegraded): approximately 27%

## CC(=O)Nc1ccc(O)cc1 [paracetamol]
[2]
  biodegradability: biodegradable

## CC(=O)Nc1c(I)c(NC(C)=O)c(I)c(C(=O)O)c1I [diatrizoate]
[3]
  degradation or absorption during sewage treatment: not significantly degraded or absorbed

## Cc1cccc(Nc2ccccc2C(=O)O)c1C [mefenamic acid]
[4]
  predicted sorption potential: high capacity to bind to solids

## C[C@@H](O)[C@H]1C(=O)N2C(C(=O)O)=C(S[C@@H]3CN[C@H](C(=O)N(C)C)C3)[C@H](C)[C@H]12 [meropenem]
[1]
  biodegradability in the CBT: None of the test compounds met the criteria for ready biodegradability

## CN(C/C=C/c1ccccc1)Cc1cccc2ccccc12 [naftifine]
[5]
  light sensitivity: light sensitive

## C=C[C@H]1C[N@@]2CC[C@H]1C[C@H]2[C@H](O)c1ccnc2ccc(OC)cc12 [quinine sulfate]
[4]
  predicted sorption potential: high capacity to bind to solids

## Cc1cccc(N(C)C(=S)Oc2ccc3ccccc3c2)c1 [tolnaftate]
[5]
  light sensitivity: light sensitive

## C[C@H](O)C(=O)Nc1c(I)c(C(=O)NC(CO)CO)c(I)c(C(=O)NC(CO)CO)c1I [iopamidol]
[3]
  degradation or absorption during sewage treatment: not significantly degraded or absorbed

## S=C1SCN(Cc2ccccc2)CN1Cc1ccccc1 [sulbentine]
[5]
  light sensitivity: light sensitive

## CC(C)Cc1ccc(C(C)C(=O)O)cc1 (stereo not shown) [ibuprofen]
[6]; oxic biofilm reactor
  biological degradation: high degree of degradation
[6]; [16]
  biological degradation: partially degraded

## Oc1cc(Cl)ccc1Oc1ccc(Cl)cc1Cl [triclosan, 2,4,4′-trichloro2′-hydroxyphenyl ether]
[7]
  fate: biological degradation: 79%
[8]
  overall elimination rate due to photochemical degradation: 0.03 day⁻¹

## Nc1ccn([C@@H]2O[C@H](CO)[C@@H](O)C2(F)F)c(=O)n1 [gemcitabine]
[9]; prolonged to 40 days, test read from the sentence before
  degree of biodegradation, test prolonged: 80%
[1]
  biodegradation in the CBT, test prolonged: 45%

## Oc1ccc(Cl)c2cccnc12 [cloxiquin]
[5]
  light sensitivity: light sensitive

## O=P1(N(CCCl)CCCl)NCCCO1 (stereo not shown) [cyclophosphamide]
[9]
  biodegradability in the ZWT: poor biodegradability
[1]
  biodegradability in the CBT: poor biodegradability
[10]
  biodegradability: poor biodegradability

## CN(C(=O)CO)c1c(I)c(C(=O)NCC(O)CO)c(I)c(C(=O)NCC(O)CO)c1I (stereo not shown) [iomeprol]
[3]
  degradation or absorption during sewage treatment: not significantly degraded or absorbed

## COCC(=O)Nc1c(I)c(C(=O)NCC(O)CO)c(I)c(C(=O)N(C)CC(O)CO)c1I (stereo not shown) [iopromide]
[11]
  photodegradation: amenable to photodegradation
[3]
  degradation or absorption during sewage treatment: not significantly degraded or absorbed

## CN(C)CCn1nnnc1SCC1=C(C(=O)O)N2C(=O)[C@@H](NC(=O)Cc3csc(N)n3)[C@H]2SC1 [cefotiam]
[1]
  biodegradability in the CBT: None of the test compounds met the criteria for ready biodegradability

## O=c1[nH]cc(F)c(=O)[nH]1 [5-fluorouracil]
[9]
  biodegradability in the ZWT: not biodegradable
[1]
  biodegradability in the CBT: not biodegradable

## O=S=O [sulfur dioxide]
[12]
  fecal coliforms in treated effluent: < 2 MPN

## CN(CC(O)CO)C(=O)c1c(I)c(N)c(I)c(C(=O)NCC(O)CO)c1I (stereo not shown) [5-amino-N,N′bis(2,3-dihydroxypropyl)-2,4,6-triiodo-N-methyliso-phthalamide]
[11]
  photodegradation: faster rate of photolysis than the parent compound

## CN/C(=N/CCSCc1nc[nH]c1C)NC#N [cimetidine]
[13]
  direct photolysis: resistant to direct photolysis

## O=C(O)Cc1ccccc1Nc1c(Cl)cccc1Cl [diclofenac]
[14]; entering a Swiss lake
  degraded: up to 90%
[14]; fortified lake water
  reduction on incubation in the dark: no reduction
[6]; [16]
  biological degradation: partially degraded

## O=C(O)c1cn(C2CC2)c2cc(N3CCNCC3)c(F)cc2c1=O [ciprofloxacin]
[15]
  biodegradability: none of the compounds were biodegraded
[1]
  biodegradability in the CBT: None of the test compounds met the criteria for ready biodegradability

## O=C(O)c1ccccc1O [salicylic acid]
[2]
  biodegradability: biodegradable
